From patent US9000022B2 (Exelixis Patent Company LLC, priority 2005, dated 2015)

Tested on: LXRα and/or LXRβ
Assay: Co-transfection assay (LXRE luciferase reporter, CV-1 cells)
Type: cell-based, human
Conditions: tested as described in Example 33; IC50 or EC50 for LXRα and/or LXRβ, isoform not specified; read-out: activity (IC50 or EC50 for LXR)
Method in brief: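 CV-1 cells transiently co-transfected with full-length human LXRα or LXRβ plus RXRα, an LXRE×1-Tk-luciferase reporter and a β-galactosidase control. Compounds incubated 20 h at 37 °C (≤1% DMSO; screen at 10 μM final); luciferase read after lysis. EC50/IC50 from 8-point half-log curves (4 wells per point, ≥3 experiments); efficacy relative to a reference agonist high control and DMSO.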

SMILES | IC50 or EC50 (potency, activation or inhibition)
CC(C)(O)c1cn(-c2ccc(-c3cccc(S(C)(=O)=O)c3)cc2)c(-c2ccccc2F)n1 [Example 380, 2-{2-(2-fluorophenyl)-1-[3′-(methylsulfonyl)biphenyl-4-yl]-1H-imidazol-4-yl}propan-2-ol] | 1 to 10 µM
CC(=O)c1cn(-c2ccc(-c3cccc(S(C)(=O)=O)c3)cc2)c(-c2ccccc2F)n1 [Example 381, 1-{2-(2-fluorophenyl)-1-[3′-(methylsulfonyl)biphenyl-4-yl]-1H-imidazol-4-yl}ethanone] | 1 to 10 µM
CC(C)(O)c1cn(-c2ccc(-c3cccc(S(C)(=O)=O)c3)cc2)c(-c2cccc(Cl)c2Cl)n1 [Example 382, 2-{2-(2,3-dichlorophenyl)-1-[3′-(methylsulfonyl)biphenyl-4-yl]-1H-imidazol-4-yl}propan-2-ol] | < 1 µM
CC(C)(O)c1cn(-c2ccc(-c3cccc(S(C)(=O)=O)c3)cc2)c(-c2cccc(F)c2Cl)n1 [Example 383, 2-{2-(2-chloro-3-fluorophenyl)-1-[3′-(methylsulfonyl)biphenyl-4-yl]-1H-imidazol-4-yl}propan-2-ol] | < 1 µM
CC(C)(O)c1cn(-c2ccc(-c3cccc(S(N)(=O)=O)c3)cc2)c(-c2ccccc2Cl)n1 [Example 384, 4′-[2-(2-chlorophenyl)-4-(1-hydroxy-1-methylethyl)-1H-imidazol-1-yl]biphenyl-3-sulfonamide] | 1 to 10 µM
CC(C)(O)c1cn(-c2ccc(-c3cccc(S(C)(=O)=O)c3)cc2)c(-c2ccc(F)cc2)n1 [Example 385, 2-{2-(4-fluorophenyl)-1-[3′-(methylsulfonyl)biphenyl-4-yl]-1H-imidazol-4-yl}propan-2-ol] | 1 to 10 µM
CC(C)(O)c1cn(-c2ccc(-c3cccc(S(C)(=O)=O)c3)cc2F)c(-c2ccccc2Cl)n1 [Example 386, 2-{2-(2-chlorophenyl)-1-[3-fluoro-3′-(methylsulfonyl)biphenyl-4-yl]-1H-imidazol-4-yl}propan-2-ol] | < 1 µM
CC(C)(O)c1cn(-c2ccc(-c3cccc(S(C)(=O)=O)c3)c(F)c2)c(-c2ccccc2Cl)n1 [Example 387, 2-{2-(2-chlorophenyl)-1-[2-fluoro-3′-(methylsulfonyl)biphenyl-4-yl]-1H-imidazol-4-yl}propan-2-ol] | 1 to 10 µM
CC(C)c1cccc(-c2ccc(-n3cc(C(C)(C)O)nc3-c3ccccc3Cl)cc2)c1 [Example 388] | 1 to 10 µM
CC(C)(C)c1ccc(-c2ccc(-n3cc(C(C)(C)O)nc3-c3ccccc3Cl)cc2)cc1 [Example 389, 2-{2-(2-chlorophenyl)-1-[4′-(1,1-dimethylethyl)biphenyl-4-yl]-1H-imidazol-4-yl}propan-2-ol] | 1 to 10 µM
COC(=O)c1cccc(-c2ccc(-n3cc(C(C)(C)O)nc3-c3ccccc3Cl)cc2)c1 [Example 390, methyl 4′-[2-(2-chlorophenyl)-4-(1-hydroxy-1-methylethyl)-1H-imidazol-1-yl]biphenyl-3-carboxylate] | 1 to 10 µM
CC(C)(O)c1cn(-c2ccc(-c3cccc(NC(=O)c4ccc5c(c4)OCO5)c3)cc2)c(-c2ccccc2Cl)n1 [Example 391, N-{4′-[2-(2-chlorophenyl)-4-(1-hydroxy-1-methylethyl)-1H-imidazol-1-yl]biphenyl-3-yl}-1,3-benzodioxole-5-carboxamide] | 1 to 10 µM
CC(C)(O)c1cn(-c2ccc(-c3cccc(S(C)(=O)=O)c3)cc2)c(-c2cccc(C(F)(F)F)c2)n1 [Example 392, 2-{1-[3′-(methylsulfonyl)biphenyl-4-yl]-2-[3-(trifluoromethyl)phenyl]-1H-imidazol-4-yl}propan-2-ol] | < 1 µM
CC(C)(O)c1cn(-c2ccc(-c3cccc(S(C)(=O)=O)c3)cc2)c(-c2cccc(Cl)c2)n1 [Example 393, 2-{2-(3-chlorophenyl)-1-[3′-(methyl-sulfonyl)biphenyl-4-yl]-1H-imidazol-4-yl}propan-2-ol] | < 1 µM
Cc1cccc(Cl)c1-c1nc(C(C)(C)O)cn1-c1ccc(-c2cccc(S(C)(=O)=O)c2)cc1 [Example 394, 2-{2-(2-chloro-6-methylphenyl)-1-[3′-(methylsulfonyl)biphenyl-4-yl]-1H-imidazol-4-yl}propan-2-ol] | < 1 µM
CC(C)(O)c1cn(-c2ccc(-c3cccc(C(=O)O)c3)cc2)c(-c2ccccc2Cl)n1 [Example 395, 4′-[2-(2-chlorophenyl)-4-(1-hydroxy-1-methylethyl)-1H-imidazol-1-yl]biphenyl-3-carboxylic acid] | 1 to 10 µM
FC(F)(F)CNC(=S)c1cn(-c2ccc(Br)cc2)c(-c2ccccc2Cl)n1 [Example 396, 1-(4-bromophenyl)-2-(2-chlorophenyl)-N-(2,2,2-trifluoroethyl)-1H-imidazole-4-carbothioamide] | 1 to 10 µM
CS(=O)(=O)c1cccc(-c2ccc(-n3cc(C(=O)NCC(F)(F)F)nc3-c3ccccc3Cl)cc2)c1 [Example 397, 2-(2-chlorophenyl)-1-[3′-(methyl-sulfonyl)biphenyl-4-yl]-N-(2,2,2-trifluoroethyl)-1H-imidazole-4-carboxamide] | < 1 µM
CS(=O)(=O)c1cccc(-c2ccc(-n3cc(C(=S)NCC(F)(F)F)nc3-c3ccccc3Cl)cc2)c1 [Example 398, 2-(2-chlorophenyl)-1-[3′-(methyl-sulfonyl)biphenyl-4-yl]-N-(2,2,2-trifluoroethyl)-1H-imidazole-4-carbothioamide] | < 1 µM
COc1ccc(-c2ccc(-n3cc(C(C)(C)O)nc3-c3ccccc3C(F)(F)F)cc2)cc1S(C)(=O)=O [Example 399, 2-{1-[4′-(methyloxy)-3′-(methyl-sulfonyl)biphenyl-4-yl]-2-[2-(trifluoromethyl)phenyl]-1H-imidazol-4-yl}propan-2-ol] | 1 to 10 µM
CC(C)(O)c1cn(-c2ccc(-c3ccc(CO)c(S(C)(=O)=O)c3)cc2)c(-c2ccccc2C(F)(F)F)n1 [Example 400, 2-{1-[4′-(hydroxymethyl)-3′-(methylsulfonyl)biphenyl-4-yl]-2-[2-(trifluoromethyl)phenyl]-1H-imidazol-4-yl}propan-2-ol] | < 1 µM

The next lines start with the values.

IC50 or EC50 (potency, activation or inhibition) | SMILES
1 to 10 µM | CCOC(=O)c1cc(-c2ccc(-n3cc(C(C)(C)O)nc3-c3ccccc3C(F)(F)F)cc2)cc(S(C)(=O)=O)c1 [Example 401, ethyl 4′-{4-(1-hydroxy-1-methylethyl)-2-[2-(trifluoro-methyl)phenyl]-1H-imidazol-1-yl}-5-(methylsulfonyl)biphenyl-3-carboxylate]
< 1 µM | CC(C)(O)c1nc(-c2ccccc2C(F)(F)F)n(-c2ccc(-c3cccc(S(C)(=O)=O)c3)cc2)c1Br [Example 402, 2-{5-bromo-1-[3′-(methyl-sulfonyl)biphenyl-4-yl]-2-[2-(trifluoro-methyl)phenyl]-1H-imidazol-4-yl}propan-2-ol]
< 1 µM | CC(C)(O)c1nc(-c2ccccc2C(F)(F)F)n(-c2ccc(-c3cccc(S(C)(=O)=O)c3)cc2)c1Cl [Example 403, 2-{5-chloro-1-[3′-(methyl-sulfonyl)biphenyl-4-yl]-2-[2-(trifluoro-methyl)phenyl]-1H-imidazol-4-yl}propan-2-ol]
1 to 10 µM | CC(C)(O)c1cn(-c2ccc(-c3cccc(N)c3)cc2)c(-c2ccccc2Cl)n1 [Example 405, 2-[1-(3′-aminobiphenyl-4-yl)-2-(2-chlorophenyl)-1H-imidazol-4-yl]propan-2-ol]
< 1 µM | CC(C)(O)c1nc(-c2ccccc2C(F)(F)F)n(-c2ccc(-c3cccc(S(C)(=O)=O)c3)cc2)c1F [Example 406, 2-{5-fluoro-1-[3′-(methyl-sulfonyl)biphenyl-4-yl]-2-[2-(trifluoro-methyl)phenyl]-1H-imidazol-4-yl}propan-2-ol]
< 1 µM | CC(C)(O)c1cn(-c2cccc(-c3ccc(S(C)(=O)=O)cc3)c2)c(-c2ccccc2C(F)(F)F)n1 [Example 407, 2-{1-[4′-(methylsulfonyl)biphenyl-3-yl]-2-[2-(trifluoromethyl)phenyl]-1H-imidazol-4-yl}propan-2-ol]
< 1 µM | C/C(=N\O)c1cn(-c2ccc(-c3cccc(S(C)(=O)=O)c3)cc2)c(-c2ccccc2Cl)n1 [Example 408, 1-{2-(2-chlorophenyl)-1-[3′-(methylsulfonyl)biphenyl-4-yl]-1H-imidazol-4-yl}ethanone oxime]
1 to 10 µM | CC(C)(O)c1cccc(-c2ccc(-n3cc(C(C)(C)O)nc3-c3ccccc3Cl)cc2)c1 [Example 409, 2-{2-(2-chlorophenyl)-1-[3′-(1-hydroxy-1-methylethyl)biphenyl-4-yl]-1H-imidazol-4-yl}propan-2-ol]
1 to 10 µM | CC(C)(O)c1cn(-c2ccc(-c3cccc(S(C)(=O)=O)c3)cc2)c(-c2c(F)cccc2F)n1 [Example 410, 2-{2-(2,6-difluorophenyl)-1-[3′-(methylsulfonyl)biphenyl-4-yl]-1H-imidazol-4-yl}propan-2-ol]
< 1 µM | CC(=O)c1cn(-c2ccc(-c3cccc(S(C)(=O)=O)c3)cc2)c(-c2ccccc2C(F)(F)F)n1 [Example 411, 1-{1-[3′-(methylsulfonyl)biphenyl-4-yl]-2-[2-(trifluoromethyl)phenyl]-1H-imidazol-4-yl}ethanone]
< 1 µM | C/C(=N\O)c1cn(-c2ccc(-c3cccc(S(C)(=O)=O)c3)cc2)c(-c2ccccc2C(F)(F)F)n1 [Example 412, 1-{1-[3′-(methylsulfonyl)biphenyl-4-yl]-2-[2-(trifluoromethyl)phenyl]-1H-imidazol-4-yl}ethanone oxime]
